Laboratory results reported in patent US6541482B2, “Carbocyclic nucleoside agents useful as selective inhibitors of proinflammatory cytokines” (priority 1993, dated 2003).

Key:
lethal effects of LPS = experiment: D-galactosamine animal model of septic shock (protection against lethal effects of LPS); type: in vivo; conditions: treated about 1 hour before i.p. challenge of D-galactosamine and LPS, 100 mg/kg i.p. for the azido compound; for protection: mice, vehicle HBSS 0% protection; for mice killed: vehicle HBSS 6 out of 6 killed by 18 hours
Procedure: Mice treated with the vehicle Hanks Balanced Salt Solution (HBSS) approximately 1 hour before intraperitoneal (i.p.) challenge of D-galactosamine and LPS, succumb to disease by 18 hours after challenge (e.g. 6 out of 6 mice killed; 0% protection). […] Positive-control PTX afforded […] protection in this model (3 out of 6 mice killed; 50% protection).

TNF-α = experiment: Inhibition of TNF-α production by LPS-stimulated human monocyte-derived macrophages; type: cell-based; conditions: Macrophage; monocyte-derived macrophages from human peripheral blood, stimulated with LPS, 18 hours of culture; dose response 500 μM-0.1 μM; read-out: IC50 for inhibiting TNF-α levels
Procedure: Monocyte-derived macrophages stimulated with bacterial lipopolysaccharide (LPS) produce high levels of TNF-α (14.87±1.02 ηg/mL) during 18 hours of culture.

`CC(=O)CCCCn1c(=O)c2c(ncn2C)n(C)c1=O` [Pentoxifylline] was tested, and the protection (lethal effects of LPS) was 50%, the mice killed (lethal effects of LPS) was 3 out of 6 and the IC50 (TNF-α) was 26.3 ± 16 µM.
With `[N-]=[N+]=NC1CCC(n2cnc3c(N)ncnc32)C1` (stereo not drawn) [1R,3R-trans-1-(9-adenyl)-3-azidocyclopentane] the protection (lethal effects of LPS) was 66%, the mice killed (lethal effects of LPS) was 2 out of 6 and the IC50 (TNF-α) was 5.48 ± 1.3 µM.
